# Measured values as given in ChEMBL document CHEMBL3885861, “Open TG-GATES”.
# Species: Rattus norvegicus
# Test: Open TG-GATES - Regimen: Single
# Format: toxicity, organism-based, Sprague-Dawley
# Set-up: regimen Single, gender Male, age 6 weeks
# Conditions: in vivo, po, route gavage; for KIDNEY_L / KIDNEY_R / KIDNEY_TOTAL: tissue Kidney; for LIVER: tissue Liver; for ALP / ALT / CRE / DBIL / GLC / IP / K / Na / RALB / TBIL / TG / TP / gamma-GTP / BUN / PL: tissue Plasma
# [1] = 0 mg/kg, 3 h, dose level Control
# [2] = 0 mg/kg, 3 h, tissue Blood, dose level Control
# [3] = 0 mg/kg, 6 h, dose level Control
# [4] = 0 mg/kg, 6 h, tissue Blood, dose level Control
# [5] = 0 mg/kg, 9 h, dose level Control
# [6] = 0 mg/kg, 9 h, tissue Blood, dose level Control
# [7] = 0 mg/kg, 24 h, dose level Control
# [8] = 0 mg/kg, 24 h, tissue Blood, dose level Control
# [9] = 3 mg/kg, 3 h, tissue Blood, dose level Low
# [10] = 3 mg/kg, 6 h, tissue Blood, dose level Low
# [11] = 3 mg/kg, 9 h, tissue Blood, dose level Low
# [12] = 3 mg/kg, 24 h, tissue Blood, dose level Low
smiles,measurement,setting,value
CNCCC(Oc1ccc(C(F)(F)F)cc1)c1ccccc1.Cl (centres undefined) [FLUOXETINE HYDROCHLORIDE],TERMINAL_BW,[1],216.5 g
same,Bas,[2],0%
same,Eos,[2],1%
same,Ht,[2],41.2%
same,Lym,[2],72.6%
same,MCHC,[2],32.1%
same,Ret,[2],8.8%
same,WBC,[2],83.4 x10_2/uL
same,KIDNEY_L,[1],0.9 g
same,KIDNEY_R,[1],0.9 g
same,KIDNEY_TOTAL,[1],1.9 g
same,LIVER,[1],10.4 g
same,ALP,[1],1343.2 IU/L
same,ALT,[1],37.8 IU/L
same,CRE,[1],0.4 mg/dL
same,DBIL,[1],0.014 mg/dL
same,GLC,[1],198 mg/dL
same,IP,[1],10.1 mg/dL
same,K,[1],4.9 meq/L
same,Na,[1],138.2 meq/L
same,RALB,[1],4.1 g/dL
same,TBIL,[1],0.056 mg/dL
same,TG,[1],81.8 mg/dL
same,TP,[1],5.7 g/dL
same,gamma-GTP,[1],0.4 IU/L
same,TERMINAL_BW,[3],217.6 g
same,Bas,[4],0%
same,Eos,[4],1%
same,Ht,[4],41.1%
same,Lym,[4],72%
same,MCHC,[4],32.2%
same,Ret,[4],6.9%
same,WBC,[4],98.6 x10_2/uL
same,KIDNEY_L,[3],1 g
same,KIDNEY_R,[3],1 g
same,KIDNEY_TOTAL,[3],2.1 g
same,LIVER,[3],9.3 g
same,ALP,[3],1497.6 IU/L
same,ALT,[3],35 IU/L
same,BUN,[3],9.2 mg/dL
same,CRE,[3],0.4 mg/dL
same,DBIL,[3],0.008 mg/dL
same,GLC,[3],191 mg/dL
same,IP,[3],9.8 mg/dL
same,K,[3],5 meq/L
same,Na,[3],137.3 meq/L
same,PL,[3],131.2 mg/dL
same,RALB,[3],3.8 g/dL
same,TBIL,[3],0.048 mg/dL
same,TG,[3],45.8 mg/dL
same,TP,[3],5.3 g/dL
same,gamma-GTP,[3],1 IU/L
same,TERMINAL_BW,[5],216.1 g
same,Bas,[6],0%
same,Eos,[6],1%
same,Ht,[6],40.2%
same,Lym,[6],66.4%
same,MCHC,[6],32.5%
same,Ret,[6],8%
same,WBC,[6],106.4 x10_2/uL
same,KIDNEY_L,[5],1 g
same,KIDNEY_R,[5],1 g
same,KIDNEY_TOTAL,[5],2 g
same,LIVER,[5],9.2 g
same,ALP,[5],1190.2 IU/L
same,ALT,[5],28.6 IU/L
same,CRE,[5],0.4 mg/dL
same,DBIL,[5],0.01 mg/dL
same,GLC,[5],188.2 mg/dL
same,IP,[5],10.2 mg/dL
same,K,[5],5.1 meq/L
same,Na,[5],139 meq/L
same,PL,[5],139.8 mg/dL
same,RALB,[5],3.8 g/dL
same,TBIL,[5],0.042 mg/dL
same,TG,[5],63 mg/dL
same,TP,[5],5.3 g/dL
same,gamma-GTP,[5],0.4 IU/L
same,TERMINAL_BW,[7],234.5 g
same,Bas,[8],0%
same,Eos,[8],1%
same,Ht,[8],39.6%
same,Lym,[8],76.4%
same,MCHC,[8],32.7%
same,Ret,[8],7%
same,WBC,[8],121.8 x10_2/uL
same,KIDNEY_L,[7],1 g
same,KIDNEY_R,[7],1 g
same,KIDNEY_TOTAL,[7],2 g
same,ALP,[7],1409.4 IU/L
same,ALT,[7],36.6 IU/L
same,CRE,[7],0.4 mg/dL
same,DBIL,[7],0.012 mg/dL
same,GLC,[7],194.6 mg/dL
same,IP,[7],8.1 mg/dL
same,K,[7],5.1 meq/L
same,Na,[7],138.3 meq/L
same,RALB,[7],4 g/dL
same,TBIL,[7],0.036 mg/dL
same,TG,[7],133.6 mg/dL
same,TP,[7],5.6 g/dL
same,gamma-GTP,[7],1 IU/L
same,TERMINAL_BW,"3 mg/kg, 3 h, dose level Low",213 g
same,Bas,[9],0%
same,Eos,[9],1%
same,Ht,[9],41.8%
same,Lym,[9],76.6%
same,MCHC,[9],32.2%
same,Ret,[9],7.7%
same,WBC,[9],94.4 x10_2/uL
same,KIDNEY_L,"3 mg/kg, 3 h, dose level Low",0.9 g
same,KIDNEY_R,"3 mg/kg, 3 h, dose level Low",0.9 g
same,KIDNEY_TOTAL,"3 mg/kg, 3 h, dose level Low",1.8 g
same,LIVER,"3 mg/kg, 3 h, dose level Low",9.9 g
same,ALP,"3 mg/kg, 3 h, dose level Low",1490.4 IU/L
same,ALT,"3 mg/kg, 3 h, dose level Low",36.6 IU/L
same,BUN,"3 mg/kg, 3 h, dose level Low",11.4 mg/dL
same,CRE,"3 mg/kg, 3 h, dose level Low",0.4 mg/dL
same,DBIL,"3 mg/kg, 3 h, dose level Low",0.012 mg/dL
same,GLC,"3 mg/kg, 3 h, dose level Low",209 mg/dL
same,IP,"3 mg/kg, 3 h, dose level Low",10 mg/dL
same,K,"3 mg/kg, 3 h, dose level Low",4.5 meq/L
same,Na,"3 mg/kg, 3 h, dose level Low",138 meq/L
same,RALB,"3 mg/kg, 3 h, dose level Low",4.1 g/dL
same,TBIL,"3 mg/kg, 3 h, dose level Low",0.042 mg/dL
same,TG,"3 mg/kg, 3 h, dose level Low",85 mg/dL
same,TP,"3 mg/kg, 3 h, dose level Low",5.8 g/dL
same,gamma-GTP,"3 mg/kg, 3 h, dose level Low",0.2 IU/L
same,TERMINAL_BW,"3 mg/kg, 6 h, dose level Low",215.1 g
same,Bas,[10],0%
same,Eos,[10],1%
same,Ht,[10],41.2%
same,Lym,[10],67.4%
same,MCH,[10],22 pg
same,MCHC,[10],32.5%
same,Ret,[10],6.8%
same,WBC,[10],80.2 x10_2/uL
same,KIDNEY_L,"3 mg/kg, 6 h, dose level Low",0.9 g
same,KIDNEY_R,"3 mg/kg, 6 h, dose level Low",0.9 g
same,KIDNEY_TOTAL,"3 mg/kg, 6 h, dose level Low",1.8 g
same,LIVER,"3 mg/kg, 6 h, dose level Low",9.5 g
same,ALP,"3 mg/kg, 6 h, dose level Low",1275 IU/L
same,ALT,"3 mg/kg, 6 h, dose level Low",36.8 IU/L
same,BUN,"3 mg/kg, 6 h, dose level Low",10.2 mg/dL
same,CRE,"3 mg/kg, 6 h, dose level Low",0.4 mg/dL
same,DBIL,"3 mg/kg, 6 h, dose level Low",0.01 mg/dL
same,GLC,"3 mg/kg, 6 h, dose level Low",196 mg/dL
same,IP,"3 mg/kg, 6 h, dose level Low",10.3 mg/dL
same,K,"3 mg/kg, 6 h, dose level Low",4.8 meq/L
same,Na,"3 mg/kg, 6 h, dose level Low",137.7 meq/L
same,RALB,"3 mg/kg, 6 h, dose level Low",3.9 g/dL
same,TBIL,"3 mg/kg, 6 h, dose level Low",0.046 mg/dL
same,TG,"3 mg/kg, 6 h, dose level Low",100 mg/dL
same,TP,"3 mg/kg, 6 h, dose level Low",5.4 g/dL
same,gamma-GTP,"3 mg/kg, 6 h, dose level Low",1 IU/L
same,TERMINAL_BW,"3 mg/kg, 9 h, dose level Low",212.9 g
same,Bas,[11],0%
same,Eos,[11],1%
same,Ht,[11],40.1%
same,Lym,[11],69.2%
same,MCHC,[11],32.4%
same,Ret,[11],6.5%
same,WBC,[11],79.8 x10_2/uL
same,KIDNEY_L,"3 mg/kg, 9 h, dose level Low",0.9 g
same,KIDNEY_R,"3 mg/kg, 9 h, dose level Low",0.9 g
same,KIDNEY_TOTAL,"3 mg/kg, 9 h, dose level Low",1.8 g
same,LIVER,"3 mg/kg, 9 h, dose level Low",9.3 g
same,ALP,"3 mg/kg, 9 h, dose level Low",1183.8 IU/L
same,ALT,"3 mg/kg, 9 h, dose level Low",27.6 IU/L
same,BUN,"3 mg/kg, 9 h, dose level Low",11.2 mg/dL
same,CRE,"3 mg/kg, 9 h, dose level Low",0.4 mg/dL
same,DBIL,"3 mg/kg, 9 h, dose level Low",0.01 mg/dL
same,GLC,"3 mg/kg, 9 h, dose level Low",195.6 mg/dL
same,IP,"3 mg/kg, 9 h, dose level Low",10.2 mg/dL
same,K,"3 mg/kg, 9 h, dose level Low",5 meq/L
same,Na,"3 mg/kg, 9 h, dose level Low",139.1 meq/L
same,PL,"3 mg/kg, 9 h, dose level Low",136.8 mg/dL
same,RALB,"3 mg/kg, 9 h, dose level Low",3.9 g/dL
same,TBIL,"3 mg/kg, 9 h, dose level Low",0.036 mg/dL
same,TG,"3 mg/kg, 9 h, dose level Low",59.2 mg/dL
same,TP,"3 mg/kg, 9 h, dose level Low",5.5 g/dL
same,gamma-GTP,"3 mg/kg, 9 h, dose level Low",0.4 IU/L
same,TERMINAL_BW,"3 mg/kg, 24 h, dose level Low",223.4 g
same,Bas,[12],0%
same,Eos,[12],1%
same,Ht,[12],40.2%
same,Lym,[12],72%
same,MCHC,[12],32.5%
same,Ret,[12],7.1%
same,WBC,[12],86.8 x10_2/uL
same,KIDNEY_L,"3 mg/kg, 24 h, dose level Low",1 g
same,KIDNEY_R,"3 mg/kg, 24 h, dose level Low",1 g
same,KIDNEY_TOTAL,"3 mg/kg, 24 h, dose level Low",2 g
same,LIVER,"3 mg/kg, 24 h, dose level Low",10.5 g
same,ALP,"3 mg/kg, 24 h, dose level Low",1597.4 IU/L
same,ALT,"3 mg/kg, 24 h, dose level Low",35.6 IU/L
same,BUN,"3 mg/kg, 24 h, dose level Low",16.4 mg/dL
same,CRE,"3 mg/kg, 24 h, dose level Low",0.4 mg/dL
same,DBIL,"3 mg/kg, 24 h, dose level Low",0.01 mg/dL
same,GLC,"3 mg/kg, 24 h, dose level Low",194.8 mg/dL
same,IP,"3 mg/kg, 24 h, dose level Low",8 mg/dL
same,K,"3 mg/kg, 24 h, dose level Low",4.9 meq/L
same,Na,"3 mg/kg, 24 h, dose level Low",139.1 meq/L
same,RALB,"3 mg/kg, 24 h, dose level Low",3.9 g/dL
same,TBIL,"3 mg/kg, 24 h, dose level Low",0.034 mg/dL
same,TG,"3 mg/kg, 24 h, dose level Low",124.2 mg/dL
same,TP,"3 mg/kg, 24 h, dose level Low",5.6 g/dL
same,gamma-GTP,"3 mg/kg, 24 h, dose level Low",1 IU/L
same,TERMINAL_BW,"10 mg/kg, 3 h, dose level Middle",225.1 g
